# Measured values published in paper PMC8151276, “An Integrated Approach toward NanoBRET Tracers for Analysis of GPCR Ligand Engagement” (Molecules, 2021).
# Experiments:
# Assay type in all cases: binding
# CCR2 = target: T1, CCR2 (Homo sapiens, UniProt P41597); experiment: NanoBRET screen HiBiT-CCR2 in HEK293; conditions: CCR2
# T1 construct: purchased Promega (in-house HiBiT-GPCR construct library, NanoBRET)
# Protocol: (§1) Each tracer candidate was screened across the entire library of HiBiT-GPCR constructs using NanoBRET as the detection modality. As depicted in Figure 4A, the specificity of interactions was evaluated through decrease in BRET due to competitive displacement of a bound tracer by excess parental compound. Each tracer was analyzed for binding to each HiBiT-GPCR fusion in the absence and in the presence of competing parental compound. Briefly, HEK293 cells were transfected with HiBiT-GPCR constructs diluted into promoterless DNA to reduce expression and maximize translocation to the cell surface. Each tracer candidate was then screened at concentrations of 1 μM and 0.1 μM across cells expressing these fusions. Cells were treated for 1.5 h with tracer either alone or in the presence of 20 μM competing parental compound (i.e., control). BRET was measured upon addition of purified LgBiT and subsequent complementation with HiBiT genetically fused to a GPCR. The specificity of interactions was assessed through a decrease in BRET signal due to competitive displacement of the bound tracer. To further gauge the robustness of these interactions, the fold response over the control (i.e., BRETtracer/BRETcontrol) was calculated. We chose a 1.5-fold response, which translates to ≥7-fold signal over noise as the minimal threshold required to score an interaction as positive. […]. Below we highlight the screening results obtained for our exemplary fluorescent tracers based on Clozapine, Amitriptyline and AZD1283.
# (§2) HiBiT-GPCR DNA constructs were diluted in 10 mM Tris pH 8 to a final concentration of 0.01 μg/μL, arrayed in 96-well plates and stored at −20 °C. For transfection, HEK293 cells were suspended in Opti-MEM (without phenol red) supplemented with 2% fetal bovine serum (Seradigm) and 100 units/mL penicillin–streptomycin (Gibco) at a final concentration of 220,000 cells/mL and dispensed into white 96-well plates at 90 μL/well. Subsequent transfections and screens were carried using an Agilent Bravo Automated Liquid Handling Platform. First, the 96-well HiBiT DNA arrays were diluted 25-fold in Opti-MEM (without serum or phenol red) to a final concentration of 0.0004 μg/μL and 20 μL of the diluted DNAs were transferred into new 96-well plates. Next, promoterless carrier DNA (1 μg/μL) was diluted 25-fold (0.04 μg/μL) and then dispensed into the diluted arrays at 20 μL/well. Following brief mixing, Viafect transfection reagent (Promega) diluted 16-fold into Opti-MEM was dispensed into the plates at 40 μL/well. After mixing by pipetting, plates were incubated for 10 min on the pipetting station deck. The DNA-transfection reagent complexes were then added to plates containing cells. To facilitate the screen, 10 μL of DNA-transfection reagent complexes were added in duplicates to the top 4 and bottom 4 rows, resulting in two identical 48-well arrays per plate. Plates with transfected cells were incubated for 18–20 h at 37 °C/5% CO2. A screen of each tracer across the entire library using two different concentrations requires duplicate plates of transfected cells. Depending on the number of tracers being screened, transfections can be scaled up using the same ratios. The next day, for each tracer, four 20× screening solutions in tracer dilution buffer (Promega) were prepared: two duplicates at final concentration of 20 μM and two duplicates at a final concentration of 2 μM. A competing unmodified compound was added to one of each duplicate at a final concentration of 400 μM. The four resulting solutions were diluted 4-fold in Opti-MEM without serum or phenol red to generate 5× solutions (5 µM and 0.5 µM tracer +/− 100 μM competing compound). To screen the library, a BioTek MultiFlo FX liquid dispenser was used to dispense 22.5 µL of tracer solution to the top 4 rows and 22.5 µL tracer + competing compound solution to the 4 bottom rows. Plates were briefly mixed on an orbital shaker and incubated for 1.5 h at room temperature. […]
# CXCR6 = target: T2, CXCR6 (Homo sapiens, UniProt O00574); experiment: NanoBRET screen HiBiT-CXCR6 in HEK293; conditions: CXCR6
# T2 construct: purchased Promega (in-house HiBiT-GPCR construct library, NanoBRET)
# Protocol: as §1, §2
# LGR6 = target: T3, LGR6 (Homo sapiens, UniProt Q9HBX8); experiment: NanoBRET screen HiBiT-LGR6 in HEK293; conditions: LGR6
# T3 construct: purchased Promega (in-house HiBiT-GPCR construct library, NanoBRET)
# T3 sequence (Q9HBX8 25-967): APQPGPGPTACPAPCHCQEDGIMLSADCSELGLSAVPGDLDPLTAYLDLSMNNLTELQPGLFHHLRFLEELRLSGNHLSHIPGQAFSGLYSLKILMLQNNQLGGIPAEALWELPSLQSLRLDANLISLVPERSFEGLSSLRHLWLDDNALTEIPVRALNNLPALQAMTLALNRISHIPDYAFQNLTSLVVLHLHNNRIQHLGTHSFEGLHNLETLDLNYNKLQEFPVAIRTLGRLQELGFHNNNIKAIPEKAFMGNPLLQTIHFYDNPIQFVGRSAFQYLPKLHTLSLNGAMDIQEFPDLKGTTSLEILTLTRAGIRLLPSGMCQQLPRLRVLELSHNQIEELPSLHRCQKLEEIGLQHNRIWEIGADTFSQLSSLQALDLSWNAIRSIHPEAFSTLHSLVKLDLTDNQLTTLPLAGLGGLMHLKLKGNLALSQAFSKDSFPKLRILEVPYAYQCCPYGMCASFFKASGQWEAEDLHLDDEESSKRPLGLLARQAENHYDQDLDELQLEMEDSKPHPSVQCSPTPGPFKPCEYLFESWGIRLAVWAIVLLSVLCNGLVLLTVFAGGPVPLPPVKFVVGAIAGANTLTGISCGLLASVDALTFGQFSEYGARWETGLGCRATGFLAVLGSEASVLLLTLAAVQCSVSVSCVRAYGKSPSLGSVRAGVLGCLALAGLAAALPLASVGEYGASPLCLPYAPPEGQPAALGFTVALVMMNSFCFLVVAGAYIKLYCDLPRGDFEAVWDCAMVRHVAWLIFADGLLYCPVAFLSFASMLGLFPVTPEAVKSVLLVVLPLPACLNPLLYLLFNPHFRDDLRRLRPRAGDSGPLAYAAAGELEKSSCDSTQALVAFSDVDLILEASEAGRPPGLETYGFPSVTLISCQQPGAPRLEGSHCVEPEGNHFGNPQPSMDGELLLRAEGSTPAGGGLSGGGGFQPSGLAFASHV
# Protocol: as §1, §2
# PDGFRB = target: T4, PDGFRB (Homo sapiens, UniProt P09619); experiment: NanoBRET screen HiBiT-PDGFRB in HEK293; conditions: PDGFRB
# T4 construct: purchased Promega (in-house HiBiT-GPCR construct library, NanoBRET)
# Protocol: as §1, §2
# MLNR = target: T5, MLNR (Homo sapiens, UniProt O43193); experiment: NanoBRET screen HiBiT-MLNR in HEK293; conditions: MLNR
# T5 construct: purchased Promega (in-house HiBiT-GPCR construct library, NanoBRET)
# Protocol: as §1, §2
# MC4R = target: T6, MC4R (Homo sapiens, UniProt P32245); experiment: NanoBRET screen HiBiT-MC4R in HEK293; conditions: MC4R
# T6 construct: purchased Promega (in-house HiBiT-GPCR construct library, NanoBRET)
# Protocol: as §1, §2
# T1 sequence (P41597 whole entry): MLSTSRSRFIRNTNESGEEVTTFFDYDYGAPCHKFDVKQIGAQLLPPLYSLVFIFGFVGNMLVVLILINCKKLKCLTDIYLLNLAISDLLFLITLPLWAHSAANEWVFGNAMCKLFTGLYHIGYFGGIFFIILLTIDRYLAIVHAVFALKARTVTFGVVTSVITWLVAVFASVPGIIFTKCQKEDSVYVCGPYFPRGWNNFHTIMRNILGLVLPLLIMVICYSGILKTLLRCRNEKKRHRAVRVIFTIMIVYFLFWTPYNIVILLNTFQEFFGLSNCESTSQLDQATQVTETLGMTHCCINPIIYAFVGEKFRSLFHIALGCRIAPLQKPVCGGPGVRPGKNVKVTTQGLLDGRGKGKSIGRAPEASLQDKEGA
# T5 sequence (O43193 whole entry): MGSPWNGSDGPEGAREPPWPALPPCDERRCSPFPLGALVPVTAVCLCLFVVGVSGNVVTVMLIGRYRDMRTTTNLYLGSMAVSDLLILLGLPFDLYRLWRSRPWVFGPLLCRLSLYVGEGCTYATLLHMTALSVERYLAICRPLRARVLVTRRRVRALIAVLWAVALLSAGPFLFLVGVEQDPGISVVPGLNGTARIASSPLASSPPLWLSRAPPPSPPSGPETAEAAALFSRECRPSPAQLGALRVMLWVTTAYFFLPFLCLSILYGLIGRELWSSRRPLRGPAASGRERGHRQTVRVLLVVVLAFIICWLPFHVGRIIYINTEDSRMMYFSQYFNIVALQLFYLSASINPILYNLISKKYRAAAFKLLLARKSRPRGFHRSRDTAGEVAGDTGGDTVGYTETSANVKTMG
# T4 sequence (P09619 33-1106): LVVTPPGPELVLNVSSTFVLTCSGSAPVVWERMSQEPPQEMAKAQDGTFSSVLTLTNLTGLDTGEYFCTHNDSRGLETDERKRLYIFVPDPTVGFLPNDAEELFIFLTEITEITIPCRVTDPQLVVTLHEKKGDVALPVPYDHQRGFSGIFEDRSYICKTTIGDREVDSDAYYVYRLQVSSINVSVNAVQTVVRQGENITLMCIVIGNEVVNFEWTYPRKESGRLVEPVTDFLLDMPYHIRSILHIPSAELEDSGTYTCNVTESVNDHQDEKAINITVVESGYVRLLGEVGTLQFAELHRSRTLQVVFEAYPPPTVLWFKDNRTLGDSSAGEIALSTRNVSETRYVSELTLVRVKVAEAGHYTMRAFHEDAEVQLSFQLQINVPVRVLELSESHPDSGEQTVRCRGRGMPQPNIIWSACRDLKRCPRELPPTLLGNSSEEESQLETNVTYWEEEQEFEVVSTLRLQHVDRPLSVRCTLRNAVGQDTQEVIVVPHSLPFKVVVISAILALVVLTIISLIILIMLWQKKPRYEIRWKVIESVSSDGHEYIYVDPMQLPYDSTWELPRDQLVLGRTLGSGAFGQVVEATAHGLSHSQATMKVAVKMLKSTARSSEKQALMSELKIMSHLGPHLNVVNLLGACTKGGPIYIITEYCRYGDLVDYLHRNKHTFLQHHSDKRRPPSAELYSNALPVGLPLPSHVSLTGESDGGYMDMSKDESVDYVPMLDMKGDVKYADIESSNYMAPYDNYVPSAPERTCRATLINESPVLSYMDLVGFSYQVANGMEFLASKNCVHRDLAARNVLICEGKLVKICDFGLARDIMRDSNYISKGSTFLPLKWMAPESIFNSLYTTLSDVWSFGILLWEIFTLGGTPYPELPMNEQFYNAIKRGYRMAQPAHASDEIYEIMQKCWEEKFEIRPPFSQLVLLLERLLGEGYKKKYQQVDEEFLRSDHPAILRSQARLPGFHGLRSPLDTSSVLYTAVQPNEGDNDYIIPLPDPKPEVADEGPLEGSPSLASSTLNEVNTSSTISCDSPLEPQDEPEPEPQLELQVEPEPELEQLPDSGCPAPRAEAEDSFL
# T2 sequence (O00574 whole entry): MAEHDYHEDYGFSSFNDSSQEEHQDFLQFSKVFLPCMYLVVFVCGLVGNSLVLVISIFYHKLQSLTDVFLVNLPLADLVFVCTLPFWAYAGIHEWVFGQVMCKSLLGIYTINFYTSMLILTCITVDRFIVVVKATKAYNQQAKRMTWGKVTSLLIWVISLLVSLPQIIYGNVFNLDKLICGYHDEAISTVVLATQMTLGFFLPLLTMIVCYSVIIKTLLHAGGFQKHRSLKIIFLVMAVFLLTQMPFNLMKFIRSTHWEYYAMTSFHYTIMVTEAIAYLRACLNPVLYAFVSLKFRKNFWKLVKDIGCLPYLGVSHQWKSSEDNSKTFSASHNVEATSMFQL
# T6 sequence (P32245 whole entry): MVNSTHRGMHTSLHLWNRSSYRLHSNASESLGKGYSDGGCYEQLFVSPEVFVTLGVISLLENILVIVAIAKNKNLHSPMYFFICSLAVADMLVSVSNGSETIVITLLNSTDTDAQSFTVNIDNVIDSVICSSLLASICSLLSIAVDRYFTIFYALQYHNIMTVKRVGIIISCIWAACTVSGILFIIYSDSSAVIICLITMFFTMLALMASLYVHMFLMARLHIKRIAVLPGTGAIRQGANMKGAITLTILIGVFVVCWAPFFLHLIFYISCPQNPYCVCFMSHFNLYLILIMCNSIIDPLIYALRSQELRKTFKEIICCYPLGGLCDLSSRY
SMILES,NanoBRET Fold Response (CCR2; tracer 0.1μM),NanoBRET Fold Response (CCR2; tracer 1μM),NanoBRET Fold Response (CXCR6; tracer 0.1μM),NanoBRET Fold Response (CXCR6; tracer 1μM),NanoBRET Fold Response (LGR6; tracer 0.1μM),NanoBRET Fold Response (LGR6; tracer 1μM),NanoBRET Fold Response (PDGFRB; tracer 0.1μM),NanoBRET Fold Response (PDGFRB; tracer 1μM),NanoBRET Fold Response (MLNR; tracer 0.1μM),NanoBRET Fold Response (MLNR; tracer 1μM),NanoBRET Fold Response (MC4R; tracer 0.1μM),NanoBRET Fold Response (MC4R; tracer 1μM)
Cc1nc2n(c(=O)c1CCN1CCC(c3noc4cc(F)ccc34)CC1)CCCC2OC(=O)NCCOCCOCCOCCOCCNC(=O)CCc1ccc2n1[B-](F)(F)[N+]1=C(c3ccc[nH]3)C=CC1=C2 (stereo not drawn) [Risperidone-2-NB590],1.01,1.16,1.00,1.24,1.04,1.02,1.09,0.90,0.93,0.97,1.03,1.05
CC(C)N(CC[C@H](c1ccccc1)c1cc(CCNC(=O)CCOCCOCCOCCOCCNC(=O)CCc2ccc3n2[B-](F)(F)[N+]2=C(c4ccc[nH]4)C=CC2=C3)ccc1O)C(C)C [Tolterodine-2-NB590],1.20,0.98,0.89,0.91,1.39,1.36,1.22,0.94,0.87,1.15,1.07,1.00
CC(C)N(CC[C@H](c1ccccc1)c1cc(CCNC(=O)c2ccc(CNC(=O)CCc3ccc4n3[B-](F)(F)[N+]3=C(c5ccc[nH]5)C=CC3=C4)cc2)ccc1O)C(C)C [Tolterodine-BZ-NB590],0.99,0.89,0.99,0.98,1.31,0.94,1.14,1.21,1.06,1.05,1.00,1.01
CCCn1c(=O)c2[nH]c(-c3ccc(OCC(=O)NCCNC(=O)CCOCCNC(=O)c4ccc(CNC(=O)CCc5ccc6n5[B-](F)(F)[N+]5=C(c7ccc[nH]7)C=CC5=C6)cc4)cc3)nc2n(CCC)c1=O [XAC-3-NB590],1.08,1.61,1.06,1.09,0.99,0.90,0.76,0.79,0.99,0.91,1.02,1.04
